Like-named read-outs stand apart in the source and are kept apart here.
What was measured:
[1] = cited from earlier work
[2] = Acute toxicity (LD 50/30) by serial injection of graduated doses; type: in vivo; conditions: mice and rabbits
Description: A toxicological study was conducted in both mice and rabbits by serial injection of graduated doses and the acute toxicity of imidodiphosphonate (LD 50/30) was determined to be 45-50 mg imidodiphosphonic acid per kilogram body weight.

[3] = 2 hours, rabbits, derived from Subramanian et al references

Compound	99mTc/85Sr ratio calculated from specific concentrations, Average Bone [1, 3]	99mTc/85Sr ratio calculated from specific concentrations, Blood [1, 3]	99mTc/85Sr ratio calculated from specific concentrations, Femur [1, 3]	99mTc/85Sr ratio calculated from specific concentrations, Kidney [1, 3]	99mTc/85Sr ratio calculated from specific concentrations, Liver [1, 3]	99mTc/85Sr ratio calculated from specific concentrations, Marrow [1, 3]	99mTc/85Sr ratio calculated from specific concentrations, Muscle [1, 3]	99mTc/85Sr ratio calculated from specific concentrations, Pelvis [1, 3]	99mTc/85Sr ratio calculated from specific concentrations, Spine [1, 3]	99mTc/85Sr ratio calculated from specific concentrations, Tibia [1, 3]	further results
O=P(O)(O)CN(CCN(CP(=O)(O)O)CP(=O)(O)O)CCN(CP(=O)(O)O)CP(=O)(O)O (99mTc complex, metal not drawn) [DTPMP, Diethylene Triamino Penta (Methylene Phosphonate)]											99mTc/85Sr ratio calculated from specific concentrations, Average Bone ([1]; rabbit, in vivo): 0.467; 99mTc/85Sr ratio calculated from specific concentrations, Blood ([1]; rabbit, in vivo): 0.461; 99mTc/85Sr ratio calculated from specific concentrations, Femur ([1]; rabbit, in vivo): 0.419; 99mTc/85Sr ratio calculated from specific concentrations, Kidney ([1]; rabbit, in vivo): 3.82; 99mTc/85Sr ratio calculated from specific concentrations, Liver ([1]; rabbit, in vivo): 0.544; 99mTc/85Sr ratio calculated from specific concentrations, Marrow ([1]; rabbit, in vivo): 0.547; 99mTc/85Sr ratio calculated from specific concentrations, Muscle ([1]; rabbit, in vivo): 0.221; 99mTc/85Sr ratio calculated from specific concentrations, Pelvis ([1]; rabbit, in vivo): 0.627; 99mTc/85Sr ratio calculated from specific concentrations, Spine ([1]; rabbit, in vivo): 0.415; 99mTc/85Sr ratio calculated from specific concentrations, Tibia ([1]; rabbit, in vivo): 0.384
O=P(O)(O)CN(CCCCCCN(CP(=O)(O)O)CP(=O)(O)O)CP(=O)(O)O (99mTc complex, metal not drawn) [HMDTMP, Hexamethylene Diamino Tetra (Methylene Phosphonate)]	0.456	0.703	0.434	7.06	0.855	0.713	0.407	0.516	0.428	0.437	
O=P(O)(O)OP(=O)(O)O [Pyro Phosphate]											99mTc/85Sr ratio calculated from specific concentrations, Average Bone ([1]; rabbit, in vivo): 0.812; 99mTc/85Sr ratio calculated from specific concentrations, Blood ([1]; rabbit, in vivo): 0.703; 99mTc/85Sr ratio calculated from specific concentrations, Femur ([1]; rabbit, in vivo): 0.710; 99mTc/85Sr ratio calculated from specific concentrations, Kidney ([1]; rabbit, in vivo): 2.81; 99mTc/85Sr ratio calculated from specific concentrations, Liver ([1]; rabbit, in vivo): 0.779; 99mTc/85Sr ratio calculated from specific concentrations, Marrow ([1]; rabbit, in vivo): 0.726; 99mTc/85Sr ratio calculated from specific concentrations, Muscle ([1]; rabbit, in vivo): 0.365; 99mTc/85Sr ratio calculated from specific concentrations, Pelvis ([1]; rabbit, in vivo): 0.918; 99mTc/85Sr ratio calculated from specific concentrations, Spine ([1]; rabbit, in vivo): 0.827; 99mTc/85Sr ratio calculated from specific concentrations, Tibia ([1]; rabbit, in vivo): 0.694
Amino Ethylne Diphosphonate [AEDP]	0.648	0.416	0.641	3.71	0.766	0.852	0.135	0.693	0.618	0.641	
Ethylene Hydroxy Diphosphonate [EHDP]	0.832	0.362	0.796	3.53	0.954	0.814	0.172	0.913	0.801	0.798	
Poly Phosphate	0.87	1.48	0.826	9.46	2.61	2.95	0.623	1.01	0.82	0.66	
imidodiphosphonic acid [imidodiphosphonate]											acute toxicity (LD 50/30) [2]: 45-50 mg imidodiphosphonic acid per kilogram body weight

From US3974268A, “Bone-seeking technetium-99m imidodiphosphonate complex” (priority 1975, dated 1976)
